Test results reported in patent US20060020110A1, “Synthetic peptides that bind to the hepatitis B virus core and E antigens” (priority 2000, published 2006).

Assays:
[1] = test system: B cell - mediated antigen presentation of HBcAg to experienced T cells; experiment: Inhibition of B cell-mediated antigen presentation of HBcAg to experienced T cells; type: cell-based, Balb/c mice
Procedure: A characterization assay that was used to evaluate the ability of a binding partner to modulate a host immune system response to HBV was conducted as follows. Groups of Balb/c mice were immunized subcutaneously with 20 μg HBcAg. Ten days later, draining lymph nodes were harvested and experienced CD4^+ T cells were purified using anti-CD4 coated magnetic beads (Dynal A S, Oslo, Norway) according to the manufacturers instructions. Naïve B cells were obtained from syngeneic mice, which had not been immunized. These B cells were used as antigen presenting cells in the characterization assay.
The ability of the different mAbs and peptides to block B cell uptake and antigen presentation of HBcAg-peptides to HBcAg-specific CD4+ T cells was then tested in vitro. The cell populations were mixed at a B/T cell ratio of 1:5 and added at a final concentration of approximately 2.5×10^5 to 5.0×10^5 cells per well in a 96 well microplate. Approximately, 20 μg of HBcAg was preincubated with the binding partner. The binding partner mixtures were then added to the cells and the plates were incubated for 26 to 96 hours at 37° C. The effect of the binding partners on T cell proliferation was determined by monitoring [^3H] thymidine incorporation.

[2] = test system: mAb specific for HSV gG2; experiment: gG2 mAb binding to fusion peptide on solid phase
From the text: (§1) ID. […] The specificity exchangers provided in SEQ. ID. […] Similarly, the specificity exchangers provided in SEQ. ID.

[3] = target: T1, HBcAg (Hepatitis B virus genotype D subtype ayw, UniProt P03146)
T1 sequence (P03146 whole entry): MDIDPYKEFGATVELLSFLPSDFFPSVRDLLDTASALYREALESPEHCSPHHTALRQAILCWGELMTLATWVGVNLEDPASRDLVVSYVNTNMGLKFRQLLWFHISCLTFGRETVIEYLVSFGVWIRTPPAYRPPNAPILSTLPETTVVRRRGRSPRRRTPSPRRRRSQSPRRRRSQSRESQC
Procedure: To evaluate the efficacy of the specificity exchangers described above, several binding assays using a mAb specific for HSV gG2 were conducted. In one assay, the various specificity exchangers were coated onto microtiterplates and were bound with the mAb specific for HSV gG2. […] ID. […] In another assay, HBcAg was coated onto microtiter plates, specificity exchanger was added (20 μg/well), and the binding of the mAb specific for HSV gG2 was determined. […] ID. […] In another binding assay, HBeAg was coated onto microtiter plates, specificity exchanger was added (20 μg/well), and the binding of the mAb specific for HSV gG2 was determined. […] ID. […] The characterization assays used to evaluate binding partners can also be used and/or modified for the analysis of the specificity exchangers.

[4] = target: T1, HBcAg; remark: listed apart in the source
Procedure: Accordingly, the assay was conducted by mixing the antibody to be tested with the appropriate antigen and allowing binding to occur overnight. Subsequently, rabbit complement, which is consumed if the antibody binds the antigen and the complement, was added. To determine the amount of residual complement in the mixture, sheep erythrocytes and an antibody to sheep erythrocytes was added.

[5] = target: T2, HBeAg (Hepatitis B virus genotype D subtype ayw, UniProt P0C573); experiment: Redirection of HSV gG2 mAb to HBeAg on solid phase by fusion peptide in solution; type: binding
T2 construct: containing nine residues of pre-core and the 150 first residues of HBcAg; made in house
T2 sequence (P0C573 21-179): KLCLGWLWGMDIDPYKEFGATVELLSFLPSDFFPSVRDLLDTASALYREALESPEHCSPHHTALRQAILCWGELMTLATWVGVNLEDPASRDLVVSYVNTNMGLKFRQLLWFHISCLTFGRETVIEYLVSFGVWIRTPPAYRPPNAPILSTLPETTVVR
From the text: as §1

[6] = target: T3, serum HBeAg (Hepatitis B virus genotype D subtype ayw, UniProt P0C573); experiment: In vivo aggregation of serum HBeAg in HBeAg-transgenic mice; details: second group of experiments, i.p., final volume 0.5 ml
T3 construct: two HBeAg-transgenic mice; from tissue; host or cells: serum of HBeAg-transgenic mice (from Dr. David R Milich, The Scripps Research Institute)
T3 sequence (P0C573 20-183): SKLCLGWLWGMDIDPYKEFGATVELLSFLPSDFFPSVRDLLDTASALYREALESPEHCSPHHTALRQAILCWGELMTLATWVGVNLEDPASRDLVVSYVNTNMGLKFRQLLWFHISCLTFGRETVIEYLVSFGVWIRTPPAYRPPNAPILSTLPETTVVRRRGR
Procedure: By using an animal model of HBV infection, the therapeutic efficacy of a specificity exchanger directed to HBV was determined. In a first group of experiments, two HBeAg-transgenic mice (obtained from Dr. David R Milich, The Scripps Research Institute, La Jolla, Calif.) were injected ip. with 500 μl of undiluted hybridoma supernatants. The mice were then bled on day zero, two, six and nine post-injection. Sera were then tested for the change in serum HBeAg levels as determined by EIA (Sorin Biomedica, Saluggia, Italy).

[7] = fusion peptide in solution 20 μg/well
[8] = specificity exchanger 20 μg/well

VKLSCKASGYIFTSHRGGPEE [SEQ. ID. No. 74]
Inhibition of B cell mediated antigen presentation of HBcAg to specific CD4+ T cells (in words) [1]: inhibited B cell mediated antigen presentation | cpm ([3H] thymidine incorporation, T cell proliferation) ([1]; T + B cells, 20 μg HBcAg preincubated with inhibitor, positive control 573, background 110): 345 cpm | % inhibition of APC ([1]; T + B cells, 20 μg HBcAg, calculated from cpm versus positive control and background proliferation): 49% | gG2 mAb binding to indicated antigen on solid phase: fusion peptide ([2]; no addition of fusion peptide in solution): 0.884 | Binding of mAb specific for HSV gG2 to coated specificity exchanger (in words) ([2]; specificity exchanger coated onto microtiterplates): appreciably bound the mAb | gG2 mAb binding to indicated antigen on solid phase: HBcAg [3, 7]: 1.462 | Binding to immobilized HBcAg allowing binding of HSV gG2 mAb (in words) [3, 8]: appreciably bound the immobilized HBcAg | Complement binding of mAb-specificity exchanger-HBcAg complex (in words) ([4]; HSV mAb and specificity exchanger at equimolar ratios): able to bind complement | Ability to inhibit binding of mAb 4-2 to HBcAg (in words) ([4]; complement binding assay): appreciably inhibited the binding of mAb 4-2 to HBcAg | Ability to inhibit binding of mAb 9C8 to HBcAg (in words) ([4]; complement binding assay): unable to compete away bound mAb 9C8 | gG2 mAb binding to indicated antigen on solid phase: HBeAg [5, 7]: 1.727 | Binding to immobilized HBeAg allowing binding of HSV gG2 mAb (in words) [5, 8]: appreciably bound the immobilized HBeAg | Fold change in serum HBeAg levels as determined by EIA in HBeAg-Tg mice ([6]; day 0 from injection): 1 | Fold change in serum HBeAg levels as determined by EIA in HBeAg-Tg mice ([6]; day 1 from injection): 1.5 | Fold change in serum HBeAg levels as determined by EIA in HBeAg-Tg mice ([6]; day 3 from injection): 2.3 | Fold change in serum HBeAg levels as determined by EIA in HBeAg-Tg mice ([6]; day 6 from injection): 2.3 | Fold change in serum HBeAg levels as determined by EIA in HBeAg-Tg mice ([6]; day 9 from injection): 3.3
